# Patent US20230263905A1, “SONOSENSITIVE LIPOSOME AND METHOD FOR PREPARING SAME” (IMGT CO, LTD., priority 2020, published 2023)
# System: MDA-MB-231 cell line
# Assay: Cancer cell death effect, MTT assay
# Format: cell-based
# Settings: not irradiated with ultrasound; 2-10 μg/mL doxorubicin, 3 hours treatment, 72 hours culture; FIG. 9
# Protocol: To compare and analyze a cell death effect of the sonosensitive liposome according to the presence/absence of ultrasound irradiation, cancer cell death effects were compared and analyzed according to the presence/absence of ultrasound irradiation using the sonosensitive liposomes of Example 1. An MDA-MB-231 cell line which is a triple-negative breast cancer cell line was used as cancer cells. The MDA-MB-231 cell line was seeded in each well of a 96-well plate at a concentration of 10,000 cells/mL, and then cultured overnight. The cell culture was cultured in a culture broth containing 10% fetal bovine serum (FBS) and 1% antibiotic in Dulbecco's Modified Eagle Medium (DMEM). The culture broth was removed from the wells in which the cells were cultured overnight, and replaced with FBS-free DMEM, and then cultured for an hour. Then, the sonosensitive liposome were added thereto, and cultured for 3 hours. To compare and analyze the cancer cell death according to the ultrasound irradiation, each of the designated wells was treated with a sonosensitive liposome (Sono liposome (US+)) irradiated with ultrasound and a sonosensitive liposome (Sono liposome (US−)) not irradiated with ultrasound. […] The cancer cell death effects were compared and analyzed by adding 200 μL of DMSO to formed formazan in each well and measuring the absorbance at a wavelength of 540 nm using an ELISA reader.
compound,measurement,value
COc1cccc2c1C(=O)c1c(O)c3c(c(O)c1C2=O)C[C@@](O)(C(=O)CO)C[C@@H]3O[C@H]1C[C@H](N)[C@H](O)[C@H](C)O1 [doxorubicin],cell death effect on cancer cells,had a cancer cell death effect
